Data taken from article PMC8407143 (Bioorganic & medicinal chemistry letters, 2021).
“Also recorded” adds a separate entry of the source.

Experiments:
E. coli IspF [1] = biological target: T1, E. coli IspF (Escherichia coli, UniProt P62617); settings: cited from earlier work
T1 sequence (P62617 1-159): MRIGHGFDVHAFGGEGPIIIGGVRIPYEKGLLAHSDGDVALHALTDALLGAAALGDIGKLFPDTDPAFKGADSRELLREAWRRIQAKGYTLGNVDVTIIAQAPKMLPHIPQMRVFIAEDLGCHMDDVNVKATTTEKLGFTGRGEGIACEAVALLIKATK

[2] = biological target: B. pseudomallei IspF (BpIspF) (Burkholderia pseudomallei, UniProt Q3JRA0); assay: biochemical; type: binding; settings: for Kd: KD,app
BpIspF = BpIspF (Burkholderia pseudomallei, UniProt Q3JRA0); type: binding
E. coli IspF [3] = biological target: T1, E. coli IspF; type: binding; settings: pH 7.4
E. coli IspF [4] = biological target: T1, E. coli IspF; settings: cited from earlier work; remark: listed apart in the source

B. pseudomallei IspF (BpIspF), sequence (Q3JRA0 whole entry, looked up): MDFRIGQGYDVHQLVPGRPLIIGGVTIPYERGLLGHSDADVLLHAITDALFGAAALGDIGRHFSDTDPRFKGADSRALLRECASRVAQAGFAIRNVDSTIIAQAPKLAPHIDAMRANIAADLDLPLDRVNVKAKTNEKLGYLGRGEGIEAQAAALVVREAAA
BpIspF, sequence (Q3JRA0 whole entry, looked up): as above

## CC(C)=CCC/C(C)=C/CC/C(C)=C/CO[P@@](=O)(O)OP(=O)(O)O (stereo in doubt) [farnesyl diphosphate (FPP), farnesyl diphosphate]
E. coli IspF [1]
  direct feedback inhibition of E. coli IspF (in words): did not observe direct feedback inhibition

## N[C@H](Cc1c[nH]c2ccccc12)C(=O)NO [D-tryptophan hydroxamate]
[2]
  change in affinity relative to L-tryptophan hydroxamate (3): less than a twofold drop in affinity; also recorded: less than two-fold weaker
[2]; pH 7.4
  N (stoichiometry): 0.7

## N[C@H](Cc1c[nH]c2ccccc12)C(=O)O [D-tryptophan, reference compound]
[2]
  Kd: > 1000 µM
[2]; pH 7.4
  binding (in words): undetectable binding; also recorded: did not show appreciable binding

## N[C@@H](Cc1c[nH]c2ccccc12)C(=O)NO [L-tryptophan hydroxamate (3), L-tryptophan hydroxamate]
BpIspF
  Relative Percent Saturation Transfer, proton A: 100%
  Relative Percent Saturation Transfer, proton B: 60–65%
  Relative Percent Saturation Transfer, proton C: 80–85%
  Relative Percent Saturation Transfer, proton D: 75–80%
  Relative Percent Saturation Transfer, proton E: 80–85%
  Relative Percent Saturation Transfer, proton F: 25–30%
  Relative Percent Saturation Transfer, proton G: 50–55%
[2]
  binding at pH 6.0 compared to pH 7.4 (fold weaker): approximately 25 fold
[2]; pH 7.4
  N (stoichiometry): 1.5 ± 0.2
[2]; pH 8
  N (stoichiometry): 1.4 ± 0.4
E. coli IspF [3]
  N (stoichiometry): 1.2 ± 0.3
E. coli IspF [4]
  Kd: ~2 µM

## N[C@@H](Cc1c[nH]c2ccccc12)C(=O)O [L-tryptophan, reference compound]
[2]
  Kd: > 1000 µM
[2]; pH 7.4
  binding (in words): did not show appreciable binding

## CC(C)=CCC/C(C)=C/COP(=O)(O)OP(=O)(O)O [geranyl diphosphate (GPP), geranyl diphosphate, reference compound]
BpIspF
  interaction with BpIspF by STD NMR (in words): did not show significant interaction
